Experimental data taken from PubChem BioAssay AID488798 (The Scripps Research Institute Molecular Screening Center, 2010).
The source made the active and inactive calls. No rule for the calls is given here.

Molecular target: Protein Rev (Human immunodeficiency virus type 1 group M subtype B (isolate HXB2)) (UniProt P04618)
Assay: Rev-RRE interaction blockers – biochemical, FRET, dose response, counter-screen for gld-1 inhibitor project, late-stage follow-up (AID 488798)
Details: FRET Rev-RRE RNA binding

Sequence of Protein Rev (Human immunodeficiency virus type 1 group M subtype B (isolate HXB2)) (P04618 whole entry, looked up): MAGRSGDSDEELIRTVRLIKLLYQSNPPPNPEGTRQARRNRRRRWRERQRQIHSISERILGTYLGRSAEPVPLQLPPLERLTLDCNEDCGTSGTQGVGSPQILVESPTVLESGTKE

Structure (SMILES)	IC50
CCOC(=O)c1c(C)oc2c1cc(NS(=O)(=O)c1ccc(C)cc1)c1ccccc12	> 75.4 µM (inactive)
O=C(CN1C(=O)NC2(CCCCC2)C1=O)Oc1ccc2c(C(F)(F)F)cc(=O)oc2c1	> 75.4 µM (inactive)
CC1=CC(=O)c2c(O)ccc(O)c2C1=O	> 75.4 µM (inactive)
COc1ccc(C=Nc2c(-c3ccco3)nc3ccccn23)cc1OC	> 75.4 µM (inactive)
O=c1[nH]c(=O)c2nc3ccccc3nc2[nH]1	> 75.4 µM (inactive)
O=c1[nH]c2cc3ccccc3cc2nc1C(F)(F)F	inactive
CCN(CC)S(=O)(=O)c1ccc(N2CCCC2)c(NS(=O)(=O)c2ccc(F)cc2)c1	> 75.4 µM (inactive)
Cc1ccc(S(=O)(=O)Nc2cc3c(C(=O)Nc4ccccc4)c(C)oc3c3ccccc23)c(C)c1	> 75.4 µM (inactive)
COc1ccc(/C=C(\CC(=O)O)c2nc3ccccc3s2)cc1O	> 75.4 µM (inactive)
Nc1ccc(O)c2c1C(=O)c1ccccc1C2=O	> 75.4 µM (inactive)
Cc1ccc(S(=O)(=O)Nc2cc3c(C(=O)Nc4ccccc4)c(C)oc3c3ccccc23)cc1	inactive
Nc1c(O)ccc2c1C(=O)c1ccccc1C2=O	> 75.4 µM (inactive)
O=C1C2=C(SCCS2)C(=O)N1CCCO	> 75.4 µM (inactive)
Nc1ccc2nonc2c1[N+](=O)[O-]	> 75.4 µM (inactive)
CCCCn1c(=O)[nH]c2nc3cc(NC(C)=O)ccc3nc2c1=O	inactive
